{
  "source": "patent US9302999B2",
  "about": "“Substituted triazoles as herbicides” (E. I. DU PONT DE NEMOURS AND COMPANY, priority 2012, dated 2016)",
  "type_in_all_cases": "in vivo",
  "key": {"[1]": {"tested_on": "pigweed (Amaranthus retroflexus)", "assay": "Test A pre-/postemergence: pigweed", "in_short": "(§1)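 Visual 0–100 injury ratings (0 no effect, 100 complete control) taken about ten days after treatment, relative to untreated controls. Preemergence treatment was a directed soil spray; postemergence plants were 2–10 cm tall at one- to two-leaf stage. Soil: loam/sand blend.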"}, "[2]": {"tested_on": "wheat (Triticum aestivum)", "assay": "Test A pre-/postemergence: wheat", "in_short": "as §1"}, "[3]": {"tested_on": "barnyardgrass (Echinochloa crus-galli)", "assay": "Test B flooded paddy: barnyardgrass", "conditions": "Flood, applied to paddy water at 2-leaf stage, visually evaluated after 13 to 15 days", "in_short": "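Plants were grown to the 2-leaf stage, then pots were flooded to 3 cm above the soil and compounds were applied directly into the paddy water. Water depth was held for the whole test; after 13 to 15 days in a greenhouse, injury was visually rated against untreated controls (0 = no effect, 100 = complete control).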"}, "[4]": {"tested_on": "ryegrass, Italian (Italian ryegrass, Lolium multiflorum)", "assay": "Test C pre-/postemergence: ryegrass, Italian", "in_short": "(§2)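 Preemergence on seeds in loam/sand, postemergence on 2–18 cm (1–4-leaf) plants in peat-based medium; compounds in non-phytotoxic solvent with surfactant. After 13–15 days in greenhouse, visual rating versus controls, 0 (no effect) to 100 (complete control).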"}, "[5]": {"tested_on": "galium (catchweed bedstraw, Galium aparine)", "assay": "Test C pre-/postemergence: galium", "in_short": "as §2"}, "[6]": {"tested_on": "corn (Zea mays)", "assay": "Test C pre-/postemergence: corn", "in_short": "as §2"}, "[7]": {"tested_on": "large crabgrass (Digitaria sanguinalis)", "assay": "Test C pre-/postemergence: large crabgrass", "in_short": "as §2"}, "[8]": {"tested_on": "foxtail, giant (giant foxtail, Setaria faberii)", "assay": "Test C pre-/postemergence: foxtail, giant", "in_short": "as §2"}, "[9]": {"tested_on": "lambsquarters (Chenopodium album)", "assay": "Test C pre-/postemergence: lambsquarters", "conditions": "Postemergence", "in_short": "as §2"}, "[10]": {"tested_on": "morningglory (Ipomoea coccinea)", "assay": "Test C pre-/postemergence: morningglory", "conditions": "Preemergence", "in_short": "as §2"}, "[11]": {"conditions": "Postemergence, 125 g ai/ha, 0 to 100 scale, 0 is no effect, 100 is complete control"}, "[12]": {"conditions": "Postemergence, 500 g ai/ha, visual rating on 0 to 100 scale (0 no effect, 100 complete control), approximately ten days"}, "[13]": {"conditions": "Preemergence, 125 g ai/ha, 0 to 100 scale (0 no effect, 100 complete control)"}, "[14]": {"conditions": "Preemergence, 500 g ai/ha, 0 to 100 scale, 0 is no effect, 100 is complete control"}, "[15]": {"conditions": "Postemergence, 31 g ai/ha, scale 0 to 100 (0 no effect, 100 complete control)"}, "[16]": {"conditions": "Postemergence, 62 g ai/ha, scale 0 to 100 (0 no effect, 100 complete control)"}, "[17]": {"conditions": "Postemergence, 125 g ai/ha, scale 0 to 100, 0 no effect, 100 complete control"}, "[18]": {"conditions": "Postemergence, 250 g ai/ha, scale 0 to 100"}, "[19]": {"conditions": "125 g ai/ha, scale 0 to 100, 0 no effect, 100 complete control"}, "[20]": {"conditions": "Postemergence, 500 g ai/ha, 0 to 100 scale, 0 is no effect, 100 is complete control"}, "[21]": {"conditions": "Preemergence, 125 g ai/ha, 0 to 100 scale where 0 is no effect and 100 is complete control"}, "[22]": {"conditions": "Preemergence, 500 g ai/ha, 0 to 100 scale (0 no effect, 100 complete control)"}, "[23]": {"conditions": "Preemergence, 31 g ai/ha, scale of 0 to 100, 0 is no effect, 100 is complete control"}, "[24]": {"conditions": "Preemergence, 62 g ai/ha, scale of 0 to 100, 0 is no effect, 100 is complete control"}, "[25]": {"conditions": "Preemergence, 125 g ai/ha, scale 0 to 100, 0 no effect, 100 complete control"}, "[26]": {"conditions": "Preemergence, 250 g ai/ha, scale 0 to 100, 0 no effect, 100 complete control"}},
  "data": [
    {"smiles": "FC(F)(F)c1ccc(-n2nc(Cl)c(Cc3ccnc(C(F)(F)F)c3)n2)cc1", "note": "[Compound 28]", "values": [
      {"measurement": "Pigweed plant response rating", "setting": "[1]; [11]", "result": 100},
      {"measurement": "Pigweed plant response rating", "setting": "[1]; [12]", "result": 100},
      {"measurement": "Plant response rating, Pigweed", "setting": "[1]; [13]", "result": 100},
      {"measurement": "Plant response rating, Pigweed", "setting": "[1]; [14]", "result": 100},
      {"measurement": "Wheat plant response rating", "setting": "[2]; [11]", "result": 40},
      {"measurement": "Wheat plant response rating", "setting": "[2]; [12]", "result": 50},
      {"measurement": "Plant response rating, Wheat", "setting": "[2]; [13]", "result": 0},
      {"measurement": "Plant response rating, Wheat", "setting": "[2]; [14]", "result": 20},
      {"measurement": "Plant response rating, Barnyardgrass (0 to 100 scale, 0 is no effect, 100 is complete control)", "setting": "[3]; 250 g ai/ha", "result": 90},
      {"measurement": "Plant response rating, Ryegrass, Italian", "setting": "[4]; [15]", "result": 10},
      {"measurement": "Plant response rating, Ryegrass, Italian", "setting": "[4]; [16]", "result": 25},
      {"measurement": "Plant response rating, Ryegrass, Italian", "setting": "[4]; [17]", "result": 25},
      {"measurement": "Plant response rating, Ryegrass, Italian", "setting": "[4]; [18]", "result": 30},
      {"measurement": "Plant response rating, Galium", "setting": "[5]; [15]", "result": 40},
      {"measurement": "Plant response rating, Galium", "setting": "[5]; [16]", "result": 55},
      {"measurement": "Plant response rating, Galium", "setting": "[5]; [17]", "result": 70},
      {"measurement": "Plant response rating, Galium", "setting": "[5]; [18]", "result": 80},
      {"measurement": "Plant response rating, Corn", "setting": "[6]; [15]", "result": 15},
      {"measurement": "Plant response rating, Corn", "setting": "[6]; [16]", "result": 20},
      {"measurement": "Plant response rating, Corn", "setting": "[6]; [17]", "result": 25},
      {"measurement": "Plant response rating, Corn", "setting": "[6]; [18]", "result": 25},
      {"measurement": "Plant response rating, Crabgrass, Large", "setting": "[7]; [15]", "result": 10},
      {"measurement": "Plant response rating, Crabgrass, Large", "setting": "[7]; [16]", "result": 15},
      {"measurement": "Plant response rating, Crabgrass, Large", "setting": "[7]; [17]", "result": 20},
      {"measurement": "Plant response rating, Crabgrass, Large", "setting": "[7]; [18]", "result": 25},
      {"measurement": "Plant response rating, Foxtail, Giant", "setting": "[8]; [15]", "result": 35},
      {"measurement": "Plant response rating, Foxtail, Giant", "setting": "[8]; [16]", "result": 35},
      {"measurement": "Plant response rating, Foxtail, Giant", "setting": "[8]; [17]", "result": 35},
      {"measurement": "Plant response rating, Foxtail, Giant", "setting": "[8]; [18]", "result": 50},
      {"measurement": "Plant response rating, Lambsquarters", "setting": "[9]; 31 g ai/ha, scale 0 to 100 (0 no effect, 100 complete control)", "result": 35},
      {"measurement": "Plant response rating, Lambsquarters", "setting": "[9]; 62 g ai/ha, scale 0 to 100 (0 no effect, 100 complete control)", "result": 35},
      {"measurement": "Plant response rating, Lambsquarters", "setting": "[9]; [19]", "result": 95},
      {"measurement": "Plant response rating, Lambsquarters", "setting": "[9]; 250 g ai/ha, scale 0 to 100", "result": 95}
    ]},
    {"smiles": "CCOCc1nn(-c2ccc(F)cc2)nc1Oc1ccnc(C(F)(F)F)c1", "note": "[Compound 163]", "values": [
      {"measurement": "Plant response rating, Pigweed", "setting": "[1]; [11]", "result": 100},
      {"measurement": "Pigweed plant response rating", "setting": "[1]; [20]", "result": 100},
      {"measurement": "Plant response rating, Pigweed", "setting": "[1]; [21]", "result": 100},
      {"measurement": "Plant response rating, Pigweed", "setting": "[1]; [22]", "result": 100},
      {"measurement": "Plant response rating, Wheat", "setting": "[2]; [11]", "result": 20},
      {"measurement": "Wheat plant response rating", "setting": "[2]; [20]", "result": 40},
      {"measurement": "Plant response rating, Wheat", "setting": "[2]; [21]", "result": 0},
      {"measurement": "Plant response rating, Wheat", "setting": "[2]; [22]", "result": 0},
      {"measurement": "Plant response rating, Barnyardgrass (0 to 100 scale, 0 is no effect, 100 is complete control)", "setting": "[3]; 125 g ai/ha", "result": 15},
      {"measurement": "Plant response rating, Ryegrass, Italian", "setting": "[4]; [23]", "result": 10},
      {"measurement": "Plant response rating, Ryegrass, Italian", "setting": "[4]; [24]", "result": 45},
      {"measurement": "Plant response rating, Ryegrass, Italian", "setting": "[4]; [25]", "result": 65},
      {"measurement": "Plant response rating, Ryegrass, Italian", "setting": "[4]; [26]", "result": 85},
      {"measurement": "Plant response rating, Galium", "setting": "[5]; [23]", "result": 0},
      {"measurement": "Plant response rating, Galium", "setting": "[5]; [24]", "result": 5},
      {"measurement": "Plant response rating, Galium", "setting": "[5]; [25]", "result": 5},
      {"measurement": "Plant response rating, Galium", "setting": "[5]; [26]", "result": 75},
      {"measurement": "Plant response rating, Corn", "setting": "[6]; [23]", "result": 10},
      {"measurement": "Plant response rating, Corn", "setting": "[6]; [24]", "result": 10},
      {"measurement": "Plant response rating, Corn", "setting": "[6]; [26]", "result": 10},
      {"measurement": "Plant response rating, Crabgrass, Large", "setting": "[7]; [23]", "result": 65},
      {"measurement": "Plant response rating, Crabgrass, Large", "setting": "[7]; [24]", "result": 100},
      {"measurement": "Plant response rating, Crabgrass, Large", "setting": "[7]; [25]", "result": 100},
      {"measurement": "Plant response rating, Crabgrass, Large", "setting": "[7]; [26]", "result": 100},
      {"measurement": "Plant response rating, Foxtail, Giant", "setting": "[8]; [23]", "result": 40},
      {"measurement": "Plant response rating, Foxtail, Giant", "setting": "[8]; [24]", "result": 60},
      {"measurement": "Plant response rating, Foxtail, Giant", "setting": "[8]; [25]", "result": 80},
      {"measurement": "Plant response rating, Foxtail, Giant", "setting": "[8]; [26]", "result": 100},
      {"measurement": "Plant response rating, Morningglory", "setting": "[10]; 31 g ai/ha, scale of 0 to 100, 0 is no effect, 100 is complete control", "result": 20},
      {"measurement": "Plant response rating, Morningglory", "setting": "[10]; 62 g ai/ha, scale of 0 to 100, 0 is no effect, 100 is complete control", "result": 25},
      {"measurement": "Plant response rating, Morningglory", "setting": "[10]; [19]", "result": 30},
      {"measurement": "Plant response rating, Morningglory", "setting": "[10]; 250 g ai/ha, scale 0 to 100, 0 no effect, 100 complete control", "result": 75}
    ]}
  ]
}
